Among the data in ChEMBL document CHEMBL5143551, “Synthesis of sp3-rich chiral bicyclo[3.3.1]nonanes for chemical space expansion and study of biological activities” (Bioorg Med Chem, 2022) are IC50 and inhibition values, retold here.

The nature of test [1]: Inhibition of HIF-1 transcriptional activity in human HeLa cells transfected with hypoxia response element-dependent luciferase reporter gene under hypoxic conditions. Format: cell-based.
The test system of test [2] is HeLa. Nature of the test: Growth inhibition of human HeLa cells by MTT assay. Format: functional, cell-based.
In test [3] the test system is HeLa. Kind of test: Inhibition of HIF-1-alpha protein expression in human HeLa cells at 100 uM by Western blot analysis. Type of test: functional, cell-based.
In test [4] the test system is HeLa. Nature of the test: Inhibition of HIF-1 transcriptional signaling in human HeLa cells assessed as reduction in CA9 protein expression at 100 uM under hypoxia conditions by Western blot analysis. Type of test: cell-based.
The subject of test [5] is HeLa. Nature of the test: Inhibition of HIF-1-alpha mRNA expression in human HeLa cells under hypoxia conditions at 100 uM by qPCR analysis. Format: functional, cell-based.

Calls of active or inactive are those of the source. The rule behind the calls is not given here.

Regarding `O=C(Cc1ccccc1)O[C@@H]1CC[C@@]2(OC(=O)Cc3ccccc3)CC1[C@@H](NCc1ccccc1)[C@@H]1O[C@@H]12` (mixture of isomers), the IC50 in test [1] (Homo sapiens, HeLa) turned out to be 19.5 µM; in the test with HeLa [2] (Homo sapiens, HeLa), 14.2 µM.
In the same order, the values of `CC(C)CC(=O)O[C@]12CC[C@@H](OC(=O)Cc3ccccc3)C(C1)[C@@H](NCc1ccccc1)[C@@H]1O[C@@H]12` (mixture of isomers) are 17.2 µM and 3.5 µM.
The corresponding values for `CC(C)CN[C@@H]1C2C[C@](OC(=O)Cc3ccccc3)(CC[C@H]2OC(=O)Cc2ccccc2)[C@H]2O[C@@H]12` are 31.7 µM and over 100 µM.
Turning to `CC(C)CN[C@@H]1C2C[C@](OC(=O)Cc3ccccc3)(CC[C@H]2OC(=O)CC(C)C)[C@H]2O[C@@H]12` (stereo in doubt), the 50% inhibitory concentration (IC50) in test [1] (hela) stood at 46.4 µM; in the test on HeLa [2] (hela) it was 32.3 µM.
With `CC(C)CN[C@@H]1C2C[C@](OC(=O)CC(C)C)(CC[C@H]2OC(=O)CC(C)C)[C@H]2O[C@@H]12`, the IC50 in test [1] (Homo sapiens, HeLa) amounted to 21.7 µM; in the test on HeLa [2] (Homo sapiens, HeLa), 79.6 µM. Further, the inhibition entry with HeLa [3] and with HeLa [4] was “Active” throughout.
For the compound `CC(C)CN[C@@H]1C2C[C@](OC(=O)Cc3ccccc3)(CC[C@H]2OC(=O)CC(C)C)[C@H]2O[C@@H]12` (stereo in doubt; 16f) [listing 1 of 2 here], the concentration for half-maximal inhibition (IC50) in test [1] (hela) was found to be 19 µM; in the test on HeLa [2] (hela), 76.1 µM.
For the compound `CC(C)CN[C@@H]1C2C[C@](OC(=O)CC(C)C)(CC[C@H]2OC(=O)Cc2ccccc2)[C@H]2O[C@@H]12`, the IC50 in test [1] (Homo sapiens, HeLa) amounted to 20.4 µM; with HeLa [2] (Homo sapiens, HeLa), 89.1 µM. Moreover, the inhibition entry in the test on HeLa [3] and in the test on HeLa [4] was “Active” throughout.
Regarding `CC(C)CN[C@@H]1C2C[C@](OC(=O)Cc3ccccc3)(CC[C@H]2OC(=O)CC(C)C)[C@H]2O[C@@H]12` (stereo in doubt; 16f) [listing 2 of 2 here], the inhibition result with HeLa [3], with HeLa [4] and with HeLa [5] was “Active” each time.
Regarding `CC(C)CC(=O)O[C@@H]1CC[C@@]2(OC(=O)Cc3ccccc3)CC1[C@@H](NCc1ccccc1)[C@@H]1O[C@@H]12`, the IC50 in test [1] (Homo sapiens, HeLa) stood at 31 µM; in the test on HeLa [2] (Homo sapiens, HeLa) it was 39.5 µM.
Consider `CC(C)CC(=O)O[C@@H]1CC[C@@]2(OC(=O)CC(C)C)CC1[C@@H](NCc1ccccc1)[C@@H]1O[C@@H]12`, for which the IC50 in test [1] (Homo sapiens, HeLa) was determined as 24.7 µM; with HeLa [2] (Homo sapiens, HeLa), 9.4 µM.
